Assay results reported in patent publication US7851637B2, “Compounds and methods for inhibiting the interaction of BCL proteins with binding partners” (Infinity Pharmaceuticals, Inc., priority 2004, dated 2010).

Assays:
Bcl-xL = Bcl-xL (Homo sapiens, UniProt Q07817); experiment: Bcl-xL binding affinity analysis (fluorescence polarization binding assay); parameters: scale not given here
In short: (§1)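 Compounds were tested in vitro for association with the purified target, with binding quantified from the change in fluorescence polarization.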

Bcl-2 = Bcl-2 (Homo sapiens, UniProt P10415); experiment: Bcl-2 binding affinity analysis (fluorescence polarization binding assay)
In short: as §1

Bcl-xL, sequence (Q07817 whole entry): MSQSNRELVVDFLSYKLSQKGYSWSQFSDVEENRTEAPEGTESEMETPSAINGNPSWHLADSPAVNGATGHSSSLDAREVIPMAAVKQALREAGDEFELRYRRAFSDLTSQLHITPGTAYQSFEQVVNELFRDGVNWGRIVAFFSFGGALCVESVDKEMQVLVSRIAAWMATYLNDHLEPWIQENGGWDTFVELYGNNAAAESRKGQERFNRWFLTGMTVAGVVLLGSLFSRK
Bcl-2, sequence (P10415 whole entry): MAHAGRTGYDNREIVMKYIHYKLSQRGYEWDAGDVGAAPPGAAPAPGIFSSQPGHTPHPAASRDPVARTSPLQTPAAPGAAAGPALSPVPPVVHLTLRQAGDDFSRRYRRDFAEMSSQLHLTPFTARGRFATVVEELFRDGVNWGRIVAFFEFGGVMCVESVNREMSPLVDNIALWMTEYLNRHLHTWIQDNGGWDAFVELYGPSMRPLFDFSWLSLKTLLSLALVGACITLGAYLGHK

| Structure (SMILES) | Bcl-XL binding affinity Ki (Bcl-xL) | Ki (Bcl-2) |
| --- | --- | --- |
| C[C@H](O)[C@@H]1[C@H](CO)ON(Cc2cccc(CN(CCN(C)C)Cc3ccccc3)c2)[C@@H]1C(=O)NCCCN(C)C [Compound 517] | ♯ | 6000 to 50000 nM |
| C[C@@H]1[C@@H](NC(=O)[C@@H]2[C@H]([C@H](C)O)[C@H](CO)ON2CCCCN(CCCc2ccccc2)CCN(C)C)C[C@H]2C[C@@H]1C2(C)C [Compound 545] | ♯ | 800 to 6000 nM |
| CC(C)CCN(CCN(C)C)Cc1cccc(CN2O[C@@H](CO)[C@@H]([C@H](C)O)[C@H]2C(=O)N[C@H]2C[C@H]3C[C@@H]([C@@H]2C)C3(C)C)c1 [Compound 207] | ♯ | < 800 nM |
| C[C@@H]1[C@@H](NC(=O)[C@@H]2C([C@H](C)O)[C@H](CO)ON2Cc2ccc(C#CC3(N)CCCCC3)cc2)C[C@H]2C[C@@H]1C2(C)C (stereo partly drawn) [Compound 30] | ♯♯ | 800 to 6000 nM |
| C[C@H](O)[C@@H]1[C@H](CO)ON(Cc2ccc(C#CCN(C)Cc3ccccc3)cc2)[C@@H]1C(=O)NCCC1=CCCCC1 [Compound 38] | ♯♯ | > 50000 nM |
| C[C@@H]1[C@@H](NC(=O)[C@@H]2C([C@H](C)O)[C@H](CO)ON2Cc2cccc(CN(CCN(C)C)Cc3ccccc3-c3ccccc3F)c2)C[C@H]2C[C@@H]1C2(C)C (stereo partly drawn) [Compound 343] | ♯ | < 800 nM |
| C[C@H](O)[C@@H]1[C@H](CO)ON(Cc2cccc(CN(CCN(C)C)CC3CCCCC3)c2)[C@@H]1C(=O)NC1C[C@H]2C[C@@H]([C@@H]1C)C2(C)C (stereo partly drawn) [Compound 190] | ♯ | < 800 nM |
| C[C@@H]1[C@@H](NC(=O)[C@@H]2[C@H]([C@H](C)O)[C@H](CO)ON2Cc2cccc(CN(CCN(C)C)CCC(C)(C)C)c2)C[C@H]2C[C@@H]1C2(C)C [Compound 203] | ♯ | < 800 nM |
| C[C@@H](O)[C@H]1[C@@H](CO)ON(Cc2cccc(C#CCNC(=O)c3ccccc3)c2)[C@H]1C(=O)NCCNCc1ccccc1 [Compound 61] | ♯ | 6000 to 50000 nM |
| C[C@@H]1[C@@H](NC(=O)[C@@H]2[C@H]([C@H](C)O)[C@H](CO)ON2CCCCN(CCN(C)C)Cc2ccccc2)C[C@H]2C[C@@H]1C2(C)C [Compound 547] | ♯ | 800 to 6000 nM |
| C[C@@H]1[C@@H](NC(=O)[C@@H]2C([C@H](C)O)[C@H](CO)ON2Cc2cccc(CN(CCN(C)C)CC3CC4C=CC3C4)c2)C[C@H]2C[C@@H]1C2(C)C (stereo partly drawn) [Compound 401] | ♯ | < 800 nM |
| CC(C)CC(CN(C)C)N(Cc1cccc(CN2OC(CO)C(C(C)O)C2C(=O)NC2CC3CC(C2C)C3(C)C)c1)CC1CCCC1 (stereo not drawn) [Compound 308] | ♯ | < 800 nM |
| C[C@@H]1[C@@H](NC(=O)[C@@H]2[C@H]([C@H](C)O)[C@H](CO)ON2Cc2cccc(-c3ccc(-n4ccnc4)cc3)c2)C[C@H]2C[C@@H]1C2(C)C [Compound 117] | ♯♯ | < 800 nM |
| C[C@@H](O)[C@H]1[C@@H](CO)ON(Cc2cccc(C#CC(O)Cc3ccccc3)c2)[C@H]1C(=O)NCCCN(C)c1ccccc1 (stereo partly drawn) [Compound 39] | ♯♯ | 800 to 6000 nM |

Next, values leading:

| Bcl-XL binding affinity Ki (Bcl-xL) | Ki (Bcl-2) | Structure (SMILES) |
| --- | --- | --- |
| ♯♯ | < 800 nM | C[C@@H]1[C@@H](NC(=O)[C@@H]2[C@H]([C@H](C)O)[C@H](CO)ON2Cc2cccc(-c3ccc(S(N)(=O)=O)cc3)c2)C[C@H]2C[C@@H]1C2(C)C [Compound 120] |
| ♯♯ | < 800 nM | C[C@@H]1[C@@H](NC(=O)[C@@H]2[C@H]([C@H](C)O)[C@H](CO)ON2Cc2cccc(-c3cccc(C(=O)NCCc4c[nH]cn4)c3)c2)C[C@H]2C[C@@H]1C2(C)C [Compound 127] |
| ♯ | < 800 nM | CC(=O)NCCNC(=O)c1cccc(-c2cccc(CN3O[C@@H](CO)[C@@H]([C@H](C)O)[C@H]3C(=O)N[C@H]3C[C@H]4C[C@@H]([C@@H]3C)C4(C)C)c2)c1 [Compound 146] |
| ♯♯ | < 800 nM | C[C@@H]1[C@@H](NC(=O)[C@@H]2[C@H]([C@H](C)O)[C@H](CO)ON2Cc2cccc(-c3cccc(C(=O)N4CC[C@@H](N(C)C)C4)c3)c2)C[C@H]2C[C@@H]1C2(C)C [Compound 152] |
| ♯ | 800 to 6000 nM | C[C@@H]1[C@@H](NC(=O)[C@@H]2C([C@H](C)O)[C@H](CO)ON2Cc2cccc(CN(Cc3ccccc3)C[C@@H]3CCCN3C(=O)OCc3ccccc3)c2)C[C@H]2C[C@@H]1C2(C)C (stereo partly drawn) [Compound 439] |
| ♯ | < 800 nM | C[C@@H]1[C@@H](NC(=O)[C@@H]2[C@H]([C@H](C)O)[C@H](CO)ON2Cc2cccc(-c3cccc(C(=O)NC[C@@H]4CCCN4C)c3)c2)C[C@H]2C[C@@H]1C2(C)C [Compound 104] |
| ♯ | < 800 nM | COC(=N)c1ccc(-c2cccc(CN3O[C@@H](CO)[C@@H]([C@H](C)O)[C@H]3C(=O)NC3C[C@@H]4CC([C@@H]3C)C4(C)C)c2)cc1 (stereo partly drawn) [Compound 270] |
| ♯ | < 800 nM | C[C@@H]1[C@@H](NC(=O)[C@@H]2[C@H]([C@H](C)O)[C@H](CO)ON2Cc2cccc(-c3ccc(C(=O)N4CCOCC4)cc3)c2)C[C@H]2C[C@@H]1C2(C)C [Compound 109] |
| ♯♯ | 800 to 6000 nM | C[C@@H]1[C@@H](NC(=O)[C@@H]2C([C@H](C)O)[C@H](CO)ON2Cc2cccc(C#CC(C)(O)c3ccccc3)c2)C[C@H]2C[C@@H]1C2(C)C (stereo partly drawn) [Compound 43] |
| ♯ | < 800 nM | CCCC(CN(C)C)N(Cc1cccc(CN2OC(CO)C(C(C)O)C2C(=O)NC2CC3CC(C2C)C3(C)C)c1)Cc1ccccc1Cl (stereo not drawn) [Compound 438] |
| ♯ | < 800 nM | C[C@@H]1[C@@H](NC(=O)[C@@H]2[C@H]([C@H](C)O)[C@H](CO)ON2Cc2cccc(-c3cccc(C(=O)NCCCN4CCCCC4)c3)c2)C[C@H]2C[C@@H]1C2(C)C [Compound 111] |
| ♯♯ | < 800 nM | C[C@@H]1[C@@H](NC(=O)[C@@H]2[C@H]([C@H](C)O)[C@H](CO)ON2Cc2cccc(-c3cccc(C(=O)N4CC[C@H](N(C)C)C4)c3)c2)C[C@H]2C[C@@H]1C2(C)C [Compound 119] |
| ♯ | 800 to 6000 nM | CC(O)C1C(CO)ON(Cc2cccc(CN3CCN(C(=O)OCc4ccccc4)CC3)c2)C1C(=O)NC1CC2CC(C1C)C2(C)C (stereo not drawn) [Compound 458] |
| ♯ | < 800 nM | CC(O)C1C(CO)ON(Cc2cccc(C(=O)NCc3ccccc3)c2)C1C(=O)NC1CC2CC(C1C)C2(C)C (stereo not drawn) [Compound 510] |
| ♯ | < 800 nM | C[C@@H]1[C@@H](NC(=O)[C@@H]2[C@H]([C@H](C)O)[C@H](CO)ON2Cc2cccc(-c3cccc(C(=O)NCCN4CCN(C)CC4)c3)c2)C[C@H]2C[C@@H]1C2(C)C [Compound 116] |
| ♯ | < 800 nM | C[C@@H]1[C@@H](NC(=O)[C@@H]2[C@H]([C@H](C)O)[C@H](CO)ON2Cc2cccc(-c3cccc(C(=O)NCCN4CCCC4)c3)c2)C[C@H]2C[C@@H]1C2(C)C [Compound 215] |
